Experimental findings from PubChem BioAssay (NCI) are described below.

Test systems include MALME-3M melanoma; HCT-116 colon; ACHN renal; U251 CNS; OVCAR-5 ovarian; SNB-19 CNS; HOP-62 NSCLC; SF-295 CNS; SNB-75 CNS; UACC-257 melanoma; UACC-62 melanoma; COLO 205 colon; CAKI-1 renal; RXF 393 renal; SK-MEL-28 melanoma; EKVX NSCLC; OVCAR-3 ovarian; SF-268 CNS; M14 melanoma.
Holding throughout (test): DTP human tumour cell line panel, 48 h

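Compound exposure: 48 hours, 5 concentrations, 96-well plates. TGI: total growth inhibition.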 A value given as a limit tells only on which side of the number the result lay.

The term TGI denotes the concentration at which net growth stops. In the case of `CCc1ccc(CCC(=O)O)nc1`, the TGI in the assay with MALME-3M melanoma, with HCT-116 colon, in the assay with ACHN renal, in the assay with U251 CNS, with OVCAR-5 ovarian and with SNB-19 CNS was over 100 µM each time. The TGI with HOP-62 NSCLC, with SF-295 CNS, in the assay with SNB-75 CNS, with UACC-257 melanoma, in the assay with UACC-62 melanoma and in the assay with COLO 205 colon was over 100 µM throughout. The TGI with CAKI-1 renal, with RXF 393 renal, in the assay with SK-MEL-28 melanoma, with EKVX NSCLC, with OVCAR-3 ovarian and in the assay with SF-268 CNS was over 100 µM each time. The TGI in the assay on M14 melanoma was over 100 µM.

`CN(C)CCCc1cccnc1`: the concentration for total growth inhibition (TGI) in the assay on MALME-3M melanoma, in the assay on HCT-116 colon, in the assay on ACHN renal, in the assay with U251 CNS, with OVCAR-5 ovarian and with SNB-19 CNS was over 100 µM throughout. Also, the TGI in the assay on HOP-62 NSCLC, with SF-295 CNS, with SNB-75 CNS, in the assay on UACC-257 melanoma, in the assay on UACC-62 melanoma and in the assay with COLO 205 colon was over 100 µM throughout. In addition, the TGI in the assay with CAKI-1 renal, in the assay on RXF 393 renal, with SK-MEL-28 melanoma, in the assay with EKVX NSCLC, in the assay with OVCAR-3 ovarian and in the assay on SF-268 CNS was over 100 µM each time. This compound also displayed a TGI in the assay with M14 melanoma of over 100 µM.

Turning to `O/N=C(\C=N\O)c1ccc2c(c1)Sc1ccccc1O2`, the TGI in the assay on MALME-3M melanoma was 72.5 µM; in the assay with HCT-116 colon, 45.7 µM; in the assay on ACHN renal, 42.8 µM; with U251 CNS it was 98.7 µM; with OVCAR-5 ovarian it was 87.5 µM; in the assay with SNB-19 CNS, 67.8 µM. Also, the TGI worked out at 36.8 µM in the assay on HOP-62 NSCLC; 46.3 µM in the assay with SF-295 CNS; 50.3 µM in the assay on SNB-75 CNS; 42 µM in the assay on UACC-257 melanoma; 37.7 µM in the assay with UACC-62 melanoma; 54.3 µM in the assay on COLO 205 colon. Also, the TGI in the assay on CAKI-1 renal stood at 61.1 µM; in the assay on RXF 393 renal, 36 µM; with SK-MEL-28 melanoma, 75.3 µM; with EKVX NSCLC it was 48.9 µM; in the assay on OVCAR-3 ovarian it was 48.8 µM; in the assay on SF-268 CNS it was 38.4 µM. Further, the TGI with M14 melanoma came to 39.6 µM.

Consider `Cn1c(=O)nc2n(CCO)ccnc-2c1=O`, for which the TGI in the assay with MALME-3M melanoma, in the assay with HCT-116 colon, in the assay on ACHN renal, in the assay with U251 CNS, in the assay with OVCAR-5 ovarian and with SNB-19 CNS was over 100 µM in each case. The TGI in the assay on HOP-62 NSCLC, in the assay with SF-295 CNS, in the assay with SNB-75 CNS, with UACC-257 melanoma, in the assay on UACC-62 melanoma and in the assay with COLO 205 colon was over 100 µM each time. The TGI with CAKI-1 renal, in the assay on RXF 393 renal, in the assay on SK-MEL-28 melanoma, in the assay with EKVX NSCLC, in the assay with OVCAR-3 ovarian and in the assay with SF-268 CNS was over 100 µM each time. The compound also returned a TGI in the assay on M14 melanoma of over 100 µM.

Turning to `Cc1c(C)c(S(=O)(=O)N(CCCCCN)OCCCN)c(C)c2c1OC(C)(C)CC2`, the TGI in the assay on MALME-3M melanoma was 28 µM; in the assay with HCT-116 colon, 30 µM; in the assay with ACHN renal it was 39 µM; with U251 CNS, over 36.9 µM; in the assay with OVCAR-5 ovarian it was over 55.2 µM; in the assay with SNB-19 CNS it was 24.8 µM. The TGI is 25.1 µM in the assay on HOP-62 NSCLC; 45.8 µM in the assay with SF-295 CNS; 25.7 µM in the assay with SNB-75 CNS; 38.6 µM in the assay with UACC-257 melanoma; 30.3 µM with UACC-62 melanoma; over 74.8 µM with COLO 205 colon. Moreover, the total growth inhibition concentration (TGI) with CAKI-1 renal is over 59.1 µM; in the assay with RXF 393 renal, 71.9 µM; in the assay on SK-MEL-28 melanoma, 65.4 µM; in the assay with EKVX NSCLC it was 25.3 µM; in the assay on OVCAR-3 ovarian, 19.9 µM; in the assay with SF-268 CNS, 28.5 µM. Also, in the assay with M14 melanoma, the TGI is over 100 µM.

`COC(=O)C1=C(C(=O)OC)SC(=C2c3ccsc3-c3sccc32)S1`: the total growth inhibition concentration (TGI) in the assay with MALME-3M melanoma is over 100 µM; in the assay with HCT-116 colon it was over 100 µM; with ACHN renal, over 100 µM; in the assay on U251 CNS, 98.5 µM; with OVCAR-5 ovarian it was over 100 µM; with SNB-19 CNS, over 100 µM. Further, the TGI in the assay on HOP-62 NSCLC was 55.1 µM; in the assay with SF-295 CNS, 53.5 µM; with SNB-75 CNS, 35.6 µM; with UACC-257 melanoma it was over 100 µM; with UACC-62 melanoma it was over 100 µM; with COLO 205 colon it was over 100 µM. The TGI in the assay on CAKI-1 renal is over 100 µM; in the assay on RXF 393 renal, 41.6 µM; in the assay with SK-MEL-28 melanoma, over 100 µM; in the assay with EKVX NSCLC, over 100 µM; in the assay with OVCAR-3 ovarian it was over 100 µM; in the assay on SF-268 CNS, 57.3 µM. In the assay on M14 melanoma, this compound came in with a TGI of over 100 µM.

For the compound `c1ccc2c(c1)ccc1ncccc12`, the TGI in the assay on MALME-3M melanoma, in the assay with HCT-116 colon, in the assay with ACHN renal, in the assay on U251 CNS, with OVCAR-5 ovarian and in the assay with SNB-19 CNS was over 100 µM each time. Besides, the TGI in the assay on HOP-62 NSCLC, with SF-295 CNS, in the assay with SNB-75 CNS, in the assay on UACC-257 melanoma, with UACC-62 melanoma and with COLO 205 colon was over 100 µM throughout. Besides, the TGI in the assay on CAKI-1 renal, in the assay with RXF 393 renal, in the assay with SK-MEL-28 melanoma, in the assay with EKVX NSCLC, with OVCAR-3 ovarian and in the assay on SF-268 CNS was over 100 µM each time. Further, in the assay on M14 melanoma, the TGI was over 100 µM.
